Structures can show the parent of a compound that is named as a salt.
Tests used:
[1] = molecular target: T1, furin (endogenous protease) in U20S cells (Homo sapiens, UniProt P09958); test: Furin cell-based assay (image-based, Golgi-targeted GFP with BMP10 furin/PCSK cleavage site); conditions: 24-hour incubation, read-out: furin golgi cell pXC50 (converted);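 note: Read-out is mean GFP fluorescence of Golgi puncta per cell by high-content imaging, retained when furin inhibited, over an eleven-point 0.00017–10 µM series, four-parameter fit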
T1 construct: the endogenous protease cleaves GFP; endogenous in cells; host or cells: U2OS cells transduced with a BacMam reporter
T1 sequence (P09958 108-794): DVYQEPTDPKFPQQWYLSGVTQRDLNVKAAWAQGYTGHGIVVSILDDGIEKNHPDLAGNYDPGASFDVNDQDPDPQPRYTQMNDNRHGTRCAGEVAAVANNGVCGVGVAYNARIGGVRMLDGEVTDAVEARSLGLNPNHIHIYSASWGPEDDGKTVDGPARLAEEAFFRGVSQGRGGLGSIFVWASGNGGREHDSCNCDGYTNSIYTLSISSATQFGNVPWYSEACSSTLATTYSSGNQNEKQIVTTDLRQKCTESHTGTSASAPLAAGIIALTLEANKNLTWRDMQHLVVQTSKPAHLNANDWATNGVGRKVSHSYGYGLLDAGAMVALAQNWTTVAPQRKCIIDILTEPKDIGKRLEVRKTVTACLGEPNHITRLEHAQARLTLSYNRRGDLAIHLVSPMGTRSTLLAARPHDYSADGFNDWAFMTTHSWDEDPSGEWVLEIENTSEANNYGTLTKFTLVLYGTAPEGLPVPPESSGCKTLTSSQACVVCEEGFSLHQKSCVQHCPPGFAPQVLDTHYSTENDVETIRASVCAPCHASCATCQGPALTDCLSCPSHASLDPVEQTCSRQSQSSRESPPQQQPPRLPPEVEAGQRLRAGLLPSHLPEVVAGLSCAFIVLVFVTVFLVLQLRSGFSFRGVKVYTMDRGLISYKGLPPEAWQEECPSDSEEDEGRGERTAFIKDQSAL

[2] = molecular target: T2, Furin (108-574-Tev-Flag-His) enzyme (Homo sapiens, UniProt P09958); test: Furin enzyme assay; type: biochemical
T2 construct: Furin (108-574-Tev-Flag-His) enzyme was expressed and purified from CHO cells; TEV cleavage site (C); FLAG (C); His (C); made in house; host or cells: CHO cells
T2 sequence (P09958 108-574): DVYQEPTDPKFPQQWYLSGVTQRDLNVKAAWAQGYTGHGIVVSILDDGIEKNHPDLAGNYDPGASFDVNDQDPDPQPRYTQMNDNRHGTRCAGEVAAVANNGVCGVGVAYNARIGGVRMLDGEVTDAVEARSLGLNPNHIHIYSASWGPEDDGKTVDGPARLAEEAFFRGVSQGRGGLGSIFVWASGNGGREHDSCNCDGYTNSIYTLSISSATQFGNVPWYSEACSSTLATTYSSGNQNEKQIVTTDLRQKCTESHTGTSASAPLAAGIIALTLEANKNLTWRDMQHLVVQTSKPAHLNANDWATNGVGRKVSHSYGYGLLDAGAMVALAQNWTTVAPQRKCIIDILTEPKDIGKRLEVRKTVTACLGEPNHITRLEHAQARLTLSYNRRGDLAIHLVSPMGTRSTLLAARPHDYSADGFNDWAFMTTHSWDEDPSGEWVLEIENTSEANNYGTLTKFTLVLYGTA
Procedure, shortened: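 CHO-expressed, purified furin construct at 40 pM in 100 mM HEPES pH7.5, 1 mM CaCl2, 0.005% Triton X-100. Eleven-point 1:3 series, 0.00017–10 μM final, incubated 2 h at room temperature and read on Envision. pXC50 from four-parameter fit.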

EC50 [1] [nM] | furin enzyme pIC50 [2] | Compound
15.8 | 9.2 | C[C@@H](O)CN1CCN(c2ncc(Oc3cc(CN4CCC(OCC(=O)O)CC4)cc(-c4cc(Cl)cc(Cl)c4)n3)cn2)CC1 [Example 317, (R)-2-((1-((2-(3,5-dichlorophenyl)-6-((2-(4-(2-hydroxypropyl)piperazin-1-yl)pyrimidin-5-yl)oxy)pyridin-4-yl)methyl)piperidin-4-yl)oxy)acetic acid]
10 | 8.9 | CN1CCN(c2ncc(Oc3cc(CN4CCC(CB(O)O)CC4)cc(-c4cc(Cl)cc(Cl)c4)n3)cn2)CC1 [Example 318, ((1-((2-(3,5-Dichlorophenyl)-6-((2-(4-methylpiperazin-1-yl)pyrimidin-5-yl)oxy)pyridin-4-yl)methyl)piperidin-4-yl)methyl)boronic acid, 4 hydrochloride]
6.31 | 8.9 | CN1CCCN(c2ncc(Oc3cc(CN4CCC(CB(O)O)CC4)cc(-c4cc(Cl)cc(Cl)c4)n3)cn2)CC1 [Example 322, ((1-((2-(3,5-dichlorophenyl)-6-((2-(4-methyl-1,4-diazepan-1-yl)pyrimidin-5-yl)oxy)pyridin-4-yl)methyl)piperidin-4-yl)methyl)boronic acid]
12.6 | 8.7 | CN1CCN(c2ncc(Oc3cc(CN4CCC(CCB(O)O)CC4)cc(-c4cc(Cl)cc(Cl)c4)n3)cn2)CC1 [Example 323, (2-(1-((2-(3,5-dichlorophenyl)-6-((2-(4-methylpiperazin-1-yl)pyrimidin-5-yl)oxy)pyridin-4-yl)methyl)piperidin-4-yl)ethyl)boronic acid]
50.1 | 8.3 | CN1CCN(c2ncc(Nc3cc(CN4CCC(CC(=O)O)CC4)cc(-c4cc(Cl)cc(Cl)c4)n3)cn2)CC1 [Example 332, 2-(1-((2-(3,5-Dichlorophenyl)-6-((2-(4-methylpiperazin-1-yl)pyrimidin-5-yl)amino)pyridin-4-yl)methyl)piperidin-4-yl)acetic acid, 4 hydrochloride]
12.6 | 8.7 | Cc1c(CN2CCC(CC(=O)O)CC2)cc(-c2cc(Cl)cc(Cl)c2)nc1Oc1cnc(N2CCN(C)CC2)cn1 [Example 333, 2-(1-((6-(3,5-Dichlorophenyl)-3-methyl-2-((5-(4-methylpiperazin-1-yl)pyrazin-2-yl)oxy)pyridin-4-yl)methyl)piperidin-4-yl)acetic acid]
10 | 8.8 | CC(CCN1CCN(c2cnc(Oc3cc(CN4CCC(CCO)CC4)cc(-c4cc(Cl)cc(Cl)c4)n3)cn2)CC1)C(=O)O (centres unmarked) [Example 341, 4-(4-(5-((6-(3,5-dichlorophenyl)-4-((4-(2-hydroxyethyl)piperidin-1-yl)methyl)pyridin-2-yl)oxy)pyrazin-2-yl)piperazin-1-yl)-2-methylbutanoic acid]
5.01 | 8.7 | OCCC1CCN(Cc2cc(Oc3cnc(N4CCNCC4)cn3)nc(-c3cc(Cl)cc(Cl)c3)c2)CC1 [Example 342, 2-(1-((2-(3,5-dichlorophenyl)-6-((5-(piperazin-1-yl)pyrazin-2-yl)oxy)pyridin-4-yl)methyl)piperidin-4-yl)ethanol]
63.1 | 8.7 | CC(C)(O)CN1CCN(c2cnc(Oc3cc(CN4CCC(CC(=O)O)CC4)cc(-c4cc(Cl)cc(Cl)c4)n3)cn2)CC1 [Example 343, 2-(1-((2-(3,5-dichlorophenyl)-6-((5-(4-(2-hydroxy-2-methylpropyl)piperazin-1-yl)pyrazin-2-yl)oxy)pyridin-4-yl)methyl)piperidin-4-yl)acetic acid]
79.4 | 8.4 | O=C(O)CC1CCN(Cc2cc(Oc3ccc(N4CCN5CCC4C5)nn3)nc(-c3cc(Cl)cc(Cl)c3)c2)CC1 (centres unmarked) [Example 344, 2-(1-((2-((6-(1,4-diazabicyclo[3.2.1]octan-4-yl)pyridazin-3-yl)oxy)-6-(3,5-dichlorophenyl)pyridin-4-yl)methyl)piperidin-4-yl)acetic acid]
12.6 | 8.6 | CCN1CCCN(c2cnc(Oc3cc(CN4CCC(CC(=O)O)CC4)cc(-c4cc(Cl)cc(Cl)c4)n3)cn2)CC1 [Example 345, 2-(1-((2-(3,5-dichlorophenyl)-6-((5-(4-ethyl-1,4-diazepan-1-yl)pyrazin-2-yl)oxy)pyridin-4-yl)methyl)piperidin-4-yl)acetic acid]

The next lines start with the molecule.

Compound | EC50 [1] [nM] | furin enzyme pIC50 [2]
CC(=O)NCC1CCN(Cc2cc(Oc3cnc(N4CCN(CCB(O)O)CC4)nc3)nc(-c3cc(Cl)cc(Cl)c3)c2)CC1 [Example 319, (2-(4-(5-((4-((4-(Acetamidomethyl)piperidin-1-yl)methyl)-6-(3,5-dichlorophenyl)pyridin-2-yl)oxy)pyrimidin-2-yl)piperazin-1-yl)ethyl)boronic acid, 4 hydrochloride] | 1 | 8.9
CN1CCN(c2ncc(Oc3cc(CN4CCC(CP(C)(C)=O)CC4)cc(-c4cc(Cl)cc(Cl)c4)n3)cn2)CC1 [Example 320, ((1-((2-(3,5-Dichlorophenyl)-6-((2-(4-methylpiperazin-1-yl)pyrimidin-5-yl)oxy)pyridin-4-yl)methyl)piperidin-4-yl)methyl)dimethylphosphine oxide, 4 hydrochloride] | 12.6 | 8.2
CC(=O)NC(=O)OCC1CCN(Cc2cc(Oc3cnc(N4CCN(C)CC4)nc3)nc(-c3cc(Cl)cc(Cl)c3)c2)CC1 [Example 324] | 15.8 | 8.3
COC(=O)NC(=O)NCC1CCN(Cc2cc(Oc3cnc(N4CCN(C)CC4)nc3)nc(-c3cc(Cl)cc(Cl)c3)c2)CC1 [Example 325] | 6.31 | 8.3
CN1CCN(c2ncc(Oc3cc(CN4CCC(CNC(=O)NS(C)(=O)=O)CC4)cc(-c4cc(Cl)cc(Cl)c4)n3)cn2)CC1 [Example 326, N-(((1-((2-(3,5-dichlorophenyl)-6-((2-(4-methylpiperazin-1-yl)pyrimidin-5-yl)oxy)pyridin-4-yl)methyl)piperidin-4-yl)methyl)carbamoyl)methanesulfonamide] | 12.6 | 8.7
CC(=O)NC(=O)NCC1CCN(Cc2cc(Oc3cnc(N4CCN(C)CC4)nc3)nc(-c3cc(Cl)cc(Cl)c3)c2)CC1 [Example 327] | 3.16 | 8.6
CN1CCN(c2ncc(Oc3cc(CN4CCC(NC(=O)NS(C)(=O)=O)CC4)cc(-c4cc(Cl)cc(Cl)c4)n3)cn2)CC1 [Example 328, N-((1-((2-(3,5-dichlorophenyl)-6-((2-(4-methylpiperazin-1-yl)pyrimidin-5-yl)oxy)pyridin-4-yl)methyl)piperidin-4-yl)carbamoyl)methanesulfonamide] | 12.6 | 8.3
CN1CCN(c2ncc(Oc3cc(CN4CCC(NC(N)=O)CC4)cc(-c4cc(Cl)cc(Cl)c4)n3)cn2)CC1 [Example 329, 1-(1-((2-(3,5-dichlorophenyl)-6-((2-(4-methylpiperazin-1-yl)pyrimidin-5-yl)oxy)pyridin-4-yl)methyl)piperidin-4-yl)urea] | 15.8 | 8.2
CN1CCN(c2ncc(Oc3cc(CN4CCO[C@H](CO)CC4)cc(-c4cc(Cl)cc(Cl)c4)n3)cn2)CC1 [Example 330, (S)-(4-((2-(3,5-Dichlorophenyl)-6-((2-(4-methylpiperazin-1-yl)pyrimidin-5-yl)oxy)pyridin-4-yl)methyl)-1,4-oxazepan-7-yl)methanol, 4 hydrochloride] | 10 | 8
CN1CCN(c2ncc(Oc3cc(CN4CCC(P(C)(C)=O)CC4)cc(-c4cc(Cl)cc(Cl)c4)n3)cn2)CC1 [Example 331, (1-((2-(3,5-Dichlorophenyl)-6-((2-(4-methylpiperazin-1-yl)pyrimidin-5-yl)oxy)pyridin-4-yl)methyl)piperidin-4-yl)dimethylphosphine oxide, 4 hydrochloride] | 20 | 7.8
CC(=O)NCC1CCN(Cc2cc(Oc3cnc(N4CC5CCC(C4)N5)nc3)nc(-c3cc(Cl)cc(Cl)c3)c2)CC1 [Example 335, N-((1-((2-((2-(3,8-diazabicyclo[3.2.1]octan-3-yl)pyrimidin-5-yl)oxy)-6-(3,5-dichlorophenyl)pyridin-4-yl)methyl)piperidin-4-yl)methyl)acetamide] | 1.26 | 9.2
COC(=O)NCC1CCN(Cc2cc(Oc3cnc(N4CCN5CCC4C5)nc3)nc(-c3cc(Cl)cc(Cl)c3)c2)CC1 (centres unmarked) [Example 336, methyl ((1-((2-((2-(1,4-diazabicyclo[3.2.1]octan-4-yl)pyrimidin-5-yl)oxy)-6-(3,5-dichlorophenyl)pyridin-4-yl)methyl)piperidin-4-yl)methyl)carbamate] | 3.98 | 9.1
O=C(O)[C@H]1[C@@H]2CCN(Cc3cc(Oc4cnc(N5CCN6CCC5C6)nc4)nc(-c4cc(Cl)cc(Cl)c4)c3)CC[C@@H]21 (stereo partly drawn) [Example 337, (1R,7S,8r)-4-((2-((2-(1,4-diazabicyclo[3.2.1]octan-4-yl)pyrimidin-5-yl)oxy)-6-(3,5-dichlorophenyl)pyridin-4-yl)methyl)-4-azabicyclo[5.1.0]octane-8-carboxylic acid] | 7.94 | 9
FC1CCN(Cc2cc(Oc3cnc(N4CCN5CCC4C5)nc3)nc(-c3cc(Cl)cc(Cl)c3)c2)CC1 (centres unmarked) [Example 338, 4-(5-((6-(3,5-dichlorophenyl)-4-((4-fluoropiperidin-1-yl)methyl)pyridin-2-yl)oxy)pyrimidin-2-yl)-1,4-diazabicyclo[3.2.1]octane] | 12.6 | 8
